The values below come from patent US11713338B2, “Cyclic peptides multimers targeting α-4-β-7 integrin” (priority 2016, dated 2023).

The target of experiment [1] is T1, recombinant integrin α4β7 (Homo sapiens, UniProt P13612+P26010, DEL724-798).
T1 construct: purchased R&D Systems 5397-A3-050
T1 sequence (P13612 34-970 limits assumed): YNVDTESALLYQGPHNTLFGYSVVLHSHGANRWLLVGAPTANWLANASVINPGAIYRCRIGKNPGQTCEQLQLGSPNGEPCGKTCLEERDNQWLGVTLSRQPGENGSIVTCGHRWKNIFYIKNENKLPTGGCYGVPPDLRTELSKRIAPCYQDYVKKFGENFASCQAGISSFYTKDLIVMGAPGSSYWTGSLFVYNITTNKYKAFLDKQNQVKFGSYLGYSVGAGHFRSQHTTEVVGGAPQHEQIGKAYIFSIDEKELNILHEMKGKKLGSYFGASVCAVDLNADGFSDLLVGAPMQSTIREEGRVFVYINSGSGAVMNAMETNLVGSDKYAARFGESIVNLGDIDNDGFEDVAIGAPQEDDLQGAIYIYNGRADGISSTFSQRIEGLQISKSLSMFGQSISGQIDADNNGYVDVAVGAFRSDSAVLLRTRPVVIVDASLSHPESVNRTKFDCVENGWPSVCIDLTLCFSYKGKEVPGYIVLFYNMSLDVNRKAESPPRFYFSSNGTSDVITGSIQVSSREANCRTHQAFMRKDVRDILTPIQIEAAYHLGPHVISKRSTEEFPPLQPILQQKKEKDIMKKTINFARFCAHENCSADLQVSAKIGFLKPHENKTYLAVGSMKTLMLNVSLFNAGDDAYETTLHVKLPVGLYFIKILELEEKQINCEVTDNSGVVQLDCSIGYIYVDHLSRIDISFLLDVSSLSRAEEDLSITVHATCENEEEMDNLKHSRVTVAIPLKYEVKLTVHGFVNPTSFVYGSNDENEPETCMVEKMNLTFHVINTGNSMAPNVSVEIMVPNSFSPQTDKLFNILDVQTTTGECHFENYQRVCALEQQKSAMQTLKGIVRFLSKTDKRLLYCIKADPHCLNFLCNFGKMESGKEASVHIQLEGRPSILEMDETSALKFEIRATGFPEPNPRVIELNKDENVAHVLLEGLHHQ
T1 sequence (P26010 20-723 limits assumed): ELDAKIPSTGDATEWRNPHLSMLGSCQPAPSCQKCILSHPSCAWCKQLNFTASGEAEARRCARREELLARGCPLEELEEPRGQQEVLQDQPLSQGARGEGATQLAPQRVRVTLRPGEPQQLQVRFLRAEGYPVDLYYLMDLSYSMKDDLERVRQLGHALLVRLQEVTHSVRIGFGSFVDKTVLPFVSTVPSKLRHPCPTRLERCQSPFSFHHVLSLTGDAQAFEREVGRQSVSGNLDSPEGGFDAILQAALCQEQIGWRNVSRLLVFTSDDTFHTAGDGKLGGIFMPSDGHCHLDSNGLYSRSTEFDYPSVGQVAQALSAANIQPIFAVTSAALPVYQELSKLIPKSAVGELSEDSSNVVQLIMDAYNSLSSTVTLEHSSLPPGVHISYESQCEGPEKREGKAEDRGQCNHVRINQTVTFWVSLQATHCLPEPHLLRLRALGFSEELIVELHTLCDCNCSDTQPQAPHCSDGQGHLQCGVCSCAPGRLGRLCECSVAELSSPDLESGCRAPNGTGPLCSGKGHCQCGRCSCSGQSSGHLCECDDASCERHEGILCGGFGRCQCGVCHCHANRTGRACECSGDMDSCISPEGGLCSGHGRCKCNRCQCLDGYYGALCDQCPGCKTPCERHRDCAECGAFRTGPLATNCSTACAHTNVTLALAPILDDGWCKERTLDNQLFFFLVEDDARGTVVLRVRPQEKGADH
Description: Integrin α4β7—MAdCAM-1 ELISA competition assay. Format: binding. Conditions: read-out: ELISA α4β7 Assay IC50. (In general: ELISA stands for enzyme-linked immunosorbent assay.)
Description: Integrin α4β7—MAdCAM-1 ELISA Competition Assay
The plate was incubated at 40C overnight. […] The plate was then incubated for 1 hour at room temperature. The plate was washed three times with wash buffer (50 mM Tris, 100 mM NaCl, 1 mM MnCl2, 0.05% Tween). To each well, 50 μl of compound diluted in assay buffer was added by transfer from a compound serial dilution plate. […] The plate was incubated at room temperature with shaking (300 rpm) for 2 hours to reach binding equilibrium. […] The plate was incubated at room temperature for 1 hour under agitation.

The target in experiment [2] is T2, recombinant integrin α4β1 (Homo sapiens, UniProt P05556+P13612).
T2 construct: purchased R&D Systems 5397-A3-050
T2 sequence (P05556 21-728 limits assumed, one chain of several): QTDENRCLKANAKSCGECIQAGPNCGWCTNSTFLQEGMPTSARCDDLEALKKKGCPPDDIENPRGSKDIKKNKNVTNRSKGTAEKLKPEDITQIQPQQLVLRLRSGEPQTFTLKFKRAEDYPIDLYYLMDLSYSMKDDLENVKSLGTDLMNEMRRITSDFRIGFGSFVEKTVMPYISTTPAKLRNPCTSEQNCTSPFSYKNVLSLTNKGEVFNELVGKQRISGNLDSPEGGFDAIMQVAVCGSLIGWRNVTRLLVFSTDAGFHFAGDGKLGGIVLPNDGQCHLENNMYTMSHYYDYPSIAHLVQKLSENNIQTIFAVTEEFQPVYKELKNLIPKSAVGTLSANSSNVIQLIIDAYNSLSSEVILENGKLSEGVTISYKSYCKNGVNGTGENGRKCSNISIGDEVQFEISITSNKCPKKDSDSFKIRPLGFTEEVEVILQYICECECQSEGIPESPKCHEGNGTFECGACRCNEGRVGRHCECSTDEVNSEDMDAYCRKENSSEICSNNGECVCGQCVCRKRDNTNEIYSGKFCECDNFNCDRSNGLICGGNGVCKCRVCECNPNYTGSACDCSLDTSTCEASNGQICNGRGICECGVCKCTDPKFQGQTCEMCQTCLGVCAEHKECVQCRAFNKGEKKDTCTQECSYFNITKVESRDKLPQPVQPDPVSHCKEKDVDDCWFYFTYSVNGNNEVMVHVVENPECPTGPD
Description: Integrin α4β1—VCAM-1 competition ELISA. Format: binding. Conditions: for ELISA Assay Ratio β1/β7: ratio of ELISA IC50s, α4β1 over α4β7; for IC50: read-out: ELISA α4β1 Assay IC50. A digest of the protocol: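 Compound dilutions added to coated plate and shaken at room temperature for 2 h (300 rpm) to binding equilibrium. Wash buffer: 50 mM Tris, 100 mM NaCl, 1 mM MnCl2, 0.05% Tween. Bound Fc-tagged ligand detected with anti-human IgG Fc-HRP, 1 h at room temperature.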

Experiment [3] deals with T3, integrin α4β1 (RAMOS human cells adhering to VCAM-1) (Homo sapiens, UniProt P05556+P13612).
T3 construct: Ramos cells, which express integrin α4β1; host or cells: RAMOS
T3 sequence (P13612 34-1032): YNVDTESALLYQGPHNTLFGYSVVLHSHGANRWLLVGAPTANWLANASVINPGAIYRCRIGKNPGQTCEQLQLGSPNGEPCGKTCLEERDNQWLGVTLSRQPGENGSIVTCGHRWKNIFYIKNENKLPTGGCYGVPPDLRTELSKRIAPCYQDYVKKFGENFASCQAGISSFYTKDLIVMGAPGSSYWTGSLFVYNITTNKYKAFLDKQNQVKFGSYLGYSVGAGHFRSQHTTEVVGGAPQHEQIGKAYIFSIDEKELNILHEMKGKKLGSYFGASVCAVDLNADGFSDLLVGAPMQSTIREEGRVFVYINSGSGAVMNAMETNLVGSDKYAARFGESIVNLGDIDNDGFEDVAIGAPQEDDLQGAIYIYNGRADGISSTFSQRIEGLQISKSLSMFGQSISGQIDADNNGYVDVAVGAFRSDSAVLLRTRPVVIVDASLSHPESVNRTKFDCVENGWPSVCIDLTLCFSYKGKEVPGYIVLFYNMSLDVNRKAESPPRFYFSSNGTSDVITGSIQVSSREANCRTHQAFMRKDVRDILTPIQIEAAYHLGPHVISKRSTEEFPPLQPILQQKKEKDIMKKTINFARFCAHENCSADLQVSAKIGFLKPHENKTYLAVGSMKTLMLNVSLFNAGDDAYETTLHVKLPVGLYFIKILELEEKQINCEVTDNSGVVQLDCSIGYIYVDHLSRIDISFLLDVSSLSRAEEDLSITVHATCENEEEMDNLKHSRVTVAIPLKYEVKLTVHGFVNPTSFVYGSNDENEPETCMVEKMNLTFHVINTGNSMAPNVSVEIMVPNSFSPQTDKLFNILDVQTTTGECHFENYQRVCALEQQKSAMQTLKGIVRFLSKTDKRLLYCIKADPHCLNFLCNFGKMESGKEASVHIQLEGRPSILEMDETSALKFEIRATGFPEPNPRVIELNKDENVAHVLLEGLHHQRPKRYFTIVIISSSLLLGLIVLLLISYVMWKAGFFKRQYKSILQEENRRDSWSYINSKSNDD
T3 sequence (P05556 21-798): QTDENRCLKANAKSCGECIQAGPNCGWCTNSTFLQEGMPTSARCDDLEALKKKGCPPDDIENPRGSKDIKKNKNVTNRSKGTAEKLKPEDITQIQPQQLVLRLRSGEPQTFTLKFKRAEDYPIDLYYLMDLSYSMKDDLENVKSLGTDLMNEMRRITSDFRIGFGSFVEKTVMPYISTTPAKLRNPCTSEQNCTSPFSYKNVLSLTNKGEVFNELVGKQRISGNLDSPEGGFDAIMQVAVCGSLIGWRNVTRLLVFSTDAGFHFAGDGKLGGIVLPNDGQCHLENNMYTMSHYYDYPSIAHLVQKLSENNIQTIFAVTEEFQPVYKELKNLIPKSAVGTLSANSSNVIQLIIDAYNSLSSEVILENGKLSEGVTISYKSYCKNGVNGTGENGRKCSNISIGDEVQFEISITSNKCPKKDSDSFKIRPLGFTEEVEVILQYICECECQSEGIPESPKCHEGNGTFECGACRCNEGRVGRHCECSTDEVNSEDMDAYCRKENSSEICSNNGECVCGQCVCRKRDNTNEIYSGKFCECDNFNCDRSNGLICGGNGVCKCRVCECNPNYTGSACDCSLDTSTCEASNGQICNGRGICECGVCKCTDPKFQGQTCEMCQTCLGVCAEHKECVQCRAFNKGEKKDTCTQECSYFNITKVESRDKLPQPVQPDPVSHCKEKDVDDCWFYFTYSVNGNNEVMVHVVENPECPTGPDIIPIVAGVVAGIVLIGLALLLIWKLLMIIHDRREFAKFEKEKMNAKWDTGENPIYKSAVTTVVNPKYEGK
Description: Integrin α4β1-VCAM cell adhesion assay (RAMOS cells). Format: cell-based. Conditions: for IC50: Ramos cells adhering to VCAM, read-out: Ramos Adhesion α4β1/VCAM IC50; for Ratio Ramos/RPMI: ratio of cell adhesion IC50s, Ramos α4β1/VCAM over RPMI8866 α4β7/MAdCAM. The procedure: Integrin α4β1-VCAM Cell Adhesion Assay
The plate was incubated overnight at 4° C. and washed twice with 150 μl per well wash buffer (0.05% Tween 20 in PBS), blocked with 250 μl per well blocking buffer (1% non-fat dry milk in PBS), for 1 hour at room temperature. During blocking step, RAMOS cells were resuspended at 10 million cells/ml in PBS containing […] and incubated at 37° C. for 30 min in a 50 ml tube. […] The plate was emptied by inverting and blotting on paper towels and washed manually twice with PBS. […] To calculate the dose response, the fluorescence value of control wells not containing cells was subtracted from each test well.

In the case of `CC(C)C[C@@H]1NC(=O)C[C@H](CCCCN)N(C)C(=O)[C@H](CCCCNC(=O)c2cc(C(=O)NCCCC[C@@H]3NC(=O)[C@@H]4CCCN4[C@H](C(=O)NC(C)(C)C)[C@H](C)NC(=O)[C@H]([C@@H](C)O)NC(=O)[C@H](CC(=O)O)NC(=O)[C@H](CC(C)C)NC(=O)C[C@H](CCCCN)N(C)C3=O)cc(C(=O)NCCCC[C@@H]3NC(=O)[C@@H]4CCCN4[C@H](C(=O)NC(C)(C)C)[C@H](C)NC(=O)[C@H]([C@@H](C)O)NC(=O)[C@H](CC(=O)O)NC(=O)[C@H](CC(C)C)NC(=O)C[C@H](CCCCN)N(C)C3=O)c2)NC(=O)[C@@H]2CCCN2[C@H](C(=O)NC(C)(C)C)[C@H](C)NC(=O)[C@H]([C@@H](C)O)NC(=O)[C@H](CC(=O)O)NC1=O` [Compound 538], the IC50 in experiment [1] stood at 10 nM; in experiment [2] it was 13 nM; in experiment [3] it was 7650 nM. Also, the “ELISA Assay Ratio β1/β7” value in experiment [2] is 1.3.
In the case of `CC(C)C[C@@H]1NC(=O)c2ccc(-c3ccc(N4CCN(C(=O)C56CC7CC(C5)CC(C(=O)N5CCN(c8ccc(-c9ccc%10cc9CNC(=O)[C@@H]9CCCN9[C@H](C(=O)NC(C)(C)C)[C@H](C)NC(=O)[C@H]([C@@H](C)O)NC(=O)[C@H](CC(=O)O)NC(=O)[C@H](CC(C)C)NC%10=O)cc8)CC5)(C7)C6)CC4)cc3)c(c2)CNC(=O)[C@@H]2CCCN2[C@H](C(=O)NC(C)(C)C)[C@H](C)NC(=O)[C@H]([C@@H](C)O)NC(=O)[C@H](CC(=O)O)NC1=O` [Compound 460], the IC50 in experiment [1] worked out at 14 nM; in experiment [2], 1 nM; in experiment [3], 1850 nM. Besides, the “ELISA Assay Ratio β1/β7” value in experiment [2] amounted to 0.1. The “Ratio Ramos/RPMI” value in experiment [3] is 30.
For `CC(C)C[C@@H]1NC(=O)c2ccc(-c3ccc(N4CCN(C(=O)c5cc(-c6ccccc6)c(C(=O)N6CCN(c7ccc(-c8ccc9cc8CNC(=O)[C@@H]8CCCN8[C@H](C(=O)NC(C)(C)C)[C@H](C)NC(=O)[C@H]([C@@H](C)O)NC(=O)[C@H](CC(=O)O)NC(=O)[C@H](CC(C)C)NC9=O)cc7)CC6)cc5-c5ccccc5)CC4)cc3)c(c2)CNC(=O)[C@@H]2CCCN2[C@H](C(=O)NC(C)(C)C)[C@H](C)NC(=O)[C@H]([C@@H](C)O)NC(=O)[C@H](CC(=O)O)NC1=O` [Compound 469], the values for the IC50 in experiment [1], in experiment [2] and in experiment [3] were 36 nM, 10 nM and 44 nM, respectively. Moreover, the “ELISA Assay Ratio β1/β7” value in experiment [2] is 0.3.
`CC(C)C[C@@H]1NC(=O)c2ccc(-c3ccc(N4CCN(C(=O)CCCCCCCCCCC(=O)N5CCN(c6ccc(-c7ccc8cc7CNC(=O)[C@@H]7CCCN7[C@H](C(=O)NC(C)(C)C)[C@H](C)NC(=O)[C@H]([C@@H](C)O)NC(=O)[C@H](CC(=O)O)NC(=O)[C@H](CC(C)C)NC8=O)cc6)CC5)CC4)cc3)c(c2)CNC(=O)[C@@H]2CCCN2[C@H](C(=O)NC(C)(C)C)[C@H](C)NC(=O)[C@H]([C@@H](C)O)NC(=O)[C@H](CC(=O)O)NC1=O` [Compound 392]: the IC50 in experiment [1] was determined as 18 nM; in experiment [2], 6.3 nM; in experiment [3], 1840 nM. Further, the “ELISA Assay Ratio β1/β7” value in experiment [2] is recorded as 0.3. The “Ratio Ramos/RPMI” value in experiment [3] is 65.
As for `CC(C)C[C@@H]1NC(=O)c2ccc(-c3ccc(N4CCN(C(=O)c5ccc(-c6cccc(C(=O)N7CCN(c8ccc(-c9ccc%10cc9CNC(=O)[C@@H]9CCCN9[C@H](C(=O)NC(C)(C)C)[C@H](C)NC(=O)[C@H]([C@@H](C)O)NC(=O)[C@H](CC(=O)O)NC(=O)[C@H](CC(C)C)NC%10=O)cc8)CC7)n6)nc5)CC4)cc3)c(c2)CNC(=O)[C@@H]2CCCN2[C@H](C(=O)NC(C)(C)C)[C@H](C)NC(=O)[C@H]([C@@H](C)O)NC(=O)[C@H](CC(=O)O)NC1=O` [Compound 466], in experiment [1], the IC50 is 14 nM. In experiment [2], the “ELISA Assay Ratio β1/β7” value came out at 0.3 and the IC50 was 4.2 nM. In experiment [3], the IC50 turned out to be 3240 nM and the “Ratio Ramos/RPMI” value is on record as 34.
For `CC(C)C[C@@H]1NC(=O)c2ccc(-c3ccc(N4CCN(Cc5cccc(CN6CCN(c7ccc(-c8ccc9cc8CNC(=O)[C@@H]8CCCN8[C@H](C(=O)NC(C)(C)C)[C@H](C)NC(=O)[C@H]([C@@H](C)O)NC(=O)[C@H](CC(=O)O)NC(=O)[C@H](CC(C)C)NC9=O)cc7)CC6)c5)CC4)cc3)c(c2)CNC(=O)[C@@H]2CCCN2[C@H](C(=O)NC(C)(C)C)[C@H](C)NC(=O)[C@H]([C@@H](C)O)NC(=O)[C@H](CC(=O)O)NC1=O` [Compound 499] the same measures were 17 nM, 0.2, 3.1 nM, 878 nM and 21.
`CC(C)C[C@@H]1NC(=O)c2ccc(-c3ccc(N4CCN(C(=O)c5ccc(C(=O)N6CCN(c7ccc(-c8ccc9cc8CNC(=O)[C@@H]8CCCN8[C@H](C(=O)NC(C)(C)C)[C@H](C)NC(=O)[C@H]([C@@H](C)O)NC(=O)[C@H](CC(=O)O)NC(=O)[C@H](CC(C)C)NC9=O)cc7)CC6)s5)CC4)cc3)c(c2)CNC(=O)[C@@H]2CCCN2[C@H](C(=O)NC(C)(C)C)[C@H](C)NC(=O)[C@H]([C@@H](C)O)NC(=O)[C@H](CC(=O)O)NC1=O` [Compound 470]: the IC50 in experiment [1] came out at 5.4 nM. For the same compound, in experiment [2], the “ELISA Assay Ratio β1/β7” value amounted to 0.2 and the IC50 came out at 1 nM. Further, in experiment [3], the IC50 was 1110 nM and the “Ratio Ramos/RPMI” value is on record as 66.
For the compound `COc1cc(C(=O)N2CCN(c3ccc(-c4ccc5cc4CNC(=O)[C@@H]4CCCN4[C@H](C(=O)NC(C)(C)C)[C@H](C)NC(=O)[C@H]([C@@H](C)O)NC(=O)[C@H](CC(=O)O)NC(=O)[C@H](CC(C)C)NC5=O)cc3)CC2)cc(-c2ccc(C(=O)N3CCN(c4ccc(-c5ccc6cc5CNC(=O)[C@@H]5CCCN5[C@H](C(=O)NC(C)(C)C)[C@H](C)NC(=O)[C@H]([C@@H](C)O)NC(=O)[C@H](CC(=O)O)NC(=O)[C@H](CC(C)C)NC6=O)cc4)CC3)cc2F)c1` [Compound 464], the IC50 turned out to be 61 nM in experiment [1], 22 nM in experiment [2] and 1550 nM in experiment [3].
For `CC(C)C[C@@H]1NC(=O)c2ccc(-c3ccc(N4CCN(Cc5cc(CN6CCN(c7ccc(-c8ccc9cc8CNC(=O)[C@@H]8CCCN8[C@H](C(=O)NC(C)(C)C)[C@H](C)NC(=O)[C@H]([C@@H](C)O)NC(=O)[C@H](CC(=O)O)NC(=O)[C@H](CC(C)C)NC9=O)cc7)CC6)cc(CN6CCN(c7ccc(-c8ccc9cc8CNC(=O)[C@@H]8CCCN8[C@H](C(=O)NC(C)(C)C)[C@H](C)NC(=O)[C@H]([C@@H](C)O)NC(=O)[C@H](CC(=O)O)NC(=O)[C@H](CC(C)C)NC9=O)cc7)CC6)c5)CC4)cc3)c(c2)CNC(=O)[C@@H]2CCCN2[C@H](C(=O)NC(C)(C)C)[C@H](C)NC(=O)[C@H]([C@@H](C)O)NC(=O)[C@H](CC(=O)O)NC1=O` [Compound 518] the same measures were 36 nM, 8.7 nM and 947 nM.
